Measurements reported in PMC10498667 (Chemical Science, 2023).
Where two headings read alike, the source gives them in different places.

Assays:
[1] = target: T1, Aβ40 (Homo sapiens, UniProt P05067); experiment: Aβ40 aggregation inhibition experiments (gel/western blot, TEM); assay type: biochemical; settings: flavonoid 50 μM, 24 h
T1 construct: Ab40 ([…]-; purchased Peptide Institute, Inc. (Osaka, Japan)
Method: (§1) To verify whether a series of nine flavonoids can modulate the aggregation of Aβ with and without metal ions, the molecular weight (MW) distribution and morphology of the resultant Aβ species were determined by gel electrophoresis with western blotting (gel/western blot) using an anti-Aβ antibody (6E10) and transmission electron microscopy (TEM), respectively. Two types of experiments were carried out employing two major Aβ isoforms, i.e., Aβ42 and Aβ40:[25] (i) inhibition studies to identify the effect of 1–5, 1a, 1b, 4a, and 4b on the formation of Aβ aggregates; (ii) disaggregation studies to evaluate if the flavonoids with reactivities towards Aβ aggregation in inhibition studies can disassemble preformed Aβ aggregates or modulate their further aggregation, as illustrated in Fig. 4 and S5–S9. ^† Moreover, the solutions containing the flavonoids and Cu(II) were probed by electronic absorption (Abs) spectroscopy to monitor their metal binding. […] As expected, no Abs change of 1a and 4a composed of methoxy groups on the A ring was detected by addition of Cu(II). […]
(§2) Ab Aggregation Experiments. Ab was dissolved in ammonium hydroxide [1% w/w NH4OH (aq)] and the resulting solution was aliquoted, lyophilized overnight, and stored at –80 °C. A stock solution of Ab was then prepared by dissolving the lyophilized peptide with NH4OH (1% w/w, aq; 10 µL) and diluting with ddH2O. All Ab samples were prepared following previously reported procedures.21,22 The concentration of the peptide solution was determined by measuring its […]
(§3) solution (20 mM HEPES, pH 7.4, 150 mM NaCl) was used for preparing Ab samples. For the inhibition studies, flavonoids (final concentration, 50 µM; 1% v/v DMSO) were added to the samples of Ab (25 µM) in the absence and presence of CuCl2 or ZnCl2 (25 µM) followed by incubation for 24 h at 37 °C with constant agitation. For the disaggregation studies, Ab (25 µM) was incubated with and without CuCl2 or ZnCl2 (25 µM) for 24 h at 37 °C with constant agitation to generate preformed Ab aggregates. The resultant Ab aggregates were then treated with flavonoids (50 µM) and incubated for additional 24 h with constant agitation. For the additional disaggregation experiments, preformed Ab42 aggregates (25 µM) or Ab42 seeds (10% v/v) with or without metal ions (25 µM for CuCl2 and ZnCl2) were incubated with flavonoids (50 µM) for 24 h with constant agitation. The resultant Ab aggregates were then treated with freshly prepared Ab42 […]
(§4) (25 µM) and incubated for additional 24 h with constant agitation.
(§5) Gel/Western Blot. The resultant Ab species from the aggregation experiments were analyzed by gel/Western blot using an anti-Ab antibody (6E10, Covance, Princeton, NJ, USA).21,22 Each sample (10 µL) was separated on a 10–20% tricine gel (Invitrogen). Following separation, the proteins were transferred onto nitrocellulose membranes and blocked with bovine serum albumin (BSA, 3% w/v; Sigma-Aldrich) in Tris-buffered saline (TBS) containing 0.1% v/v Tween-20 (Sigma-Aldrich) (TBS-T) for 4 h at room temperature or overnight at 4 °C. The membranes were incubated with 6E10 (1:2,000) in the solution of BSA (2% w/v in TBS-T) for 4 h at room temperature. […] A homemade ECL kit21–23 was used to visualize gel/Western blots on a ChemiDoc MP Imaging System (Bio-Rad).
(§6) TEM. Samples for TEM were prepared following previously reported methods.22,24 Glow-discharged grids (Formvar/Carbon 300-mesh; Electron Microscopy Sciences, Hatfield, PA, USA) were treated with Ab samples (25 µM; 7.5 µL) for 2 min at room temperature. Excess sample was removed using filter paper followed by washing with ddH2O (3x). Each grid incubated with uranyl […]

[2] = target: T2, Aβ42 (Homo sapiens, UniProt P05067); experiment: Aβ42 aggregation inhibition experiments (gel/western blot, TEM); assay type: biochemical; settings: flavonoid 50 μM, 24 h
T2 construct: purchased Peptide Institute, Inc. (Osaka, Japan)
Method: as §1, §2, §3, §4, §5, §6

[3] = MTT cytotoxicity assay; assay type: cell-based; settings: human
Method: Flavonoid 6 was synthesized following previously reported procedures with modifications.[66–68] […] It should be noted that cell viability was calculated, relative to that of the cells containing an equivalent amount of DMSO.
Cell viability was determined by the MTT assay [MTT = 3-(4,5-dimethylthiazol-2-yl)-2,5-diphenyltetrazolium bromide]. Cells were seeded in a 96-well plate (15,000 cells/100 µL) and treated with the samples {[flavonoid] = 5, 10, 25, 50, and 100 µM (1% v/v DMSO)}. After 24 h incubation, 5Y cells were washed with phosphate buffered saline (PBS; GIBCO). MTT [5 mg/mL in PBS (pH 7.4, GIBCO); 25 µL] was added to each well and the plate was incubated for 4 h at 37 °C. The formazan produced by cells was solubilized using an acidic solution of DMF (pH 4.5, 50% v/v, aq) and sodium dodecyl sulfate (SDS; 20% w/v) overnight at room temperature in the dark. Absorbance was measured at 600 nm by a microplate reader (Molecular Devices). Cell viability, relative to that of the cells containing an equivalent amount of DMSO, was calculated.
The measurements were conducted in triplicate. […]

[4] = Cu(II)–Aβ42, Aβ 25 μM, Cu(II) 25 μM
[5] = Zn(II)–Aβ42, Aβ 25 μM, Zn(II) 25 μM
[6] = human neuroblastoma 5Y cells, 100 μM flavonoid, 24 h, 5Y cells, relative to DMSO, read-out: cell viability
[7] = 100 μM flavonoid, 24 h, 5Y cells, relative to DMSO, read-out: cell viability

T1 sequence (P05067 672-711 limits assumed): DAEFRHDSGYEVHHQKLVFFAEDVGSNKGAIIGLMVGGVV
T2 sequence (P05067 672-713 limits assumed): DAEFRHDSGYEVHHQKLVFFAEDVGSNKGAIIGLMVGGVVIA

SMILES	morphology of resultant aggregates (TEM) ([1]; Cu(II)–Aβ40)	MW distribution of resultant species (gel/western blot) [2, 4]	morphology of resultant aggregates (TEM) ([2]; Cu(II)–Aβ42)	MW distribution of resultant species (gel/western blot) [2, 5]	morphology of resultant aggregates (TEM) ([2]; Zn(II)–Aβ42)	viability at 24 h, 100 μM [3, 6]	MW distribution of resultant species (gel/western blot) ([1]; Cu(II)–Aβ40 and Zn(II)–Aβ40)	morphology of resultant aggregates (TEM) ([1]; Zn(II)–Aβ40)	MW distribution of resultant species (gel/western blot) ([1]; metal-free Aβ40)	morphology of resultant aggregates (TEM) ([1]; metal-free Aβ40)	MW distribution of resultant species (gel/western blot) ([2]; metal-free Aβ42 25 μM, 37 °C)	morphology of resultant aggregates (TEM) ([2]; metal-free Aβ42)	viability at 24 h, 100 μM [3]	viability at 24 h, 100 μM [3, 7]
O=c1cc(-c2ccccc2)oc2ccc(O)c(O)c12 [compound 3, 5,6-dihydroxyflavone]	both amorphous and fibrillary aggregates	more intense smearing	A mixture of amorphous and small fibrillary aggregates	increased signal intensity between ca. 25–75 kDa	small amorphous aggregates	~50%								
O=c1c(-c2ccccc2)coc2cc(O)c(O)c(O)c12 [4b, 5,6,7-trihydroxyisoflavone]	both amorphous and fibrillary aggregates		chopped and thin fibrils	smearing bands at ca. 25–240 kDa	small amorphous aggregates	~70%	diverse MW distribution	a bunch of fibrillary species with chopped filamentous aggregates	reduced	shorter and thinner fibrils	discernably reduced the signal intensity of the bands	smaller fibrils and less structured aggregates		
O=c1cc(-c2ccccc2)oc2c(Cl)c(O)c(O)c(O)c12 [compound 5, 8-chlorobaicalein]	chopped filamentous Cu(II)–Aβ40 aggregates		A mixture of amorphous and small fibrillary aggregates	smearing bands at ca. 25–240 kDa	both amorphous and fibrillary Zn(II)–Aβ42 aggregates	~60%			increased the band intensity	shorter and thinner fibrils	discernably reduced the signal intensity of the bands	smaller fibrils and less structured aggregates		
O=c1c(-c2ccc(O)c(O)c2)coc2cc(O)c(O)c(O)c12 [compound 6, 3-(3,4-dihydroxyphenyl)-5,6,7-trihydroxy-4H-chromen-4-one]		smearing bands from ca. 20–240 kDa were noticeably detected	chopped fibrils	smearing bands from ca. 20–240 kDa were noticeably detected	a mixture of amorphous and fibrillary aggregates						reduced at ca. 4–20 kDa and above ca. 100 kDa	shorter and thinner fibrils		
O=c1cc(-c2ccccc2)oc2cc(O)c(O)cc12 [compound 2, 6,7-dihydroxyflavone]			did not indicate any noticeable morphological changes	a significant change in the MW distribution was not indicated	did not indicate any noticeable morphological changes								~60%	
O=c1cc(-c2ccccc2)oc2cc(O)c(O)c(O)c12 [compound 4, baicalein]	both amorphous and fibrillary aggregates	enhanced level of dodecameric or larger Aβ42 aggregates	chopped and thin fibrils	smearing bands at ca. 25–240 kDa	chopped fibrils and amorphous assemblies				reduced	shorter and thinner fibrils	discernably reduced the signal intensity of the bands	shorter and thinner fibrils		~70%
O=c1cc(-c2ccccc2)oc2cc(O)cc(O)c12 [compound 1, chrysin]			did not indicate any noticeable morphological changes	a significant change in the MW distribution was not indicated	did not indicate any noticeable morphological changes									~30%
